Converted amounts (≈) assume the structure as drawn. Read-outs that look alike come from different tables or passages of the source. Bounds are passed on as bounds.

As a reminder, the solubility is the concentration that dissolves in the medium under given conditions.

Series [1] has as its system patient-derived xenograft (PDX) of non-small cell lung carcinoma (NSCLC) with BRAF V600E mutation. The series is described as follows: Efficacy in BRAF V600E NSCLC PDX model. The settings on record: for Tumor response: day 28.
The nature of series [2]: Approximate solubility at 25° C. and 50° C. (visual). The class given is physicochemical. How it is done:
About 5 mg of Compound 1 Form A was weighed to a 2 mL glass vial. 20 μL aliquots of each solvent were added to dissolve the drug substance at 25° C. About 10 mg of Compound 1 Form A was weighed to a 2 mL glass vial. 20 μL aliquots of each solvent were added to dissolve the drug substance at 50° C. Vortex and sonication were applied to assist dissolution. Maximum volume of each solvent added was 1 mL. Approximate solubility was determined by visual observation.
About 5 mg of Compound 1 Form B was weighed to a 2 mL glass vial. 20 μL aliquots of each solvent were added to dissolve the drug substance at 25° C. About 10 mg of Compound 1 Form B was weighed to a 2 mL glass vial. […] aliquots of each solvent were added to dissolve the drug substance at 50° C. Vortex and sonication were applied to assist dissolution. Maximum volume of each solvent added is 1 mL. Approximate solubility was determined by visual observation.

Series [3] is described as follows: Crystallization from hot saturated solutions by slow cooling. The class given is physicochemical. The settings on record: for Result: slow cooling. How it is done:
About 50 mg of Compound 1 Form A was dissolved in the minimal amount of selected solvents at 50° C. Obtained solutions were filtered through a 0.45 μm syringe membrane filter. […] Samples without precipitates at 5° C. were further cooled to −20° C. Precipitates were collected by centrifugation filtration through a 0.45 μm nylon membrane filter at 14,000 rpm. Solid parts (wet cakes) were investigated by XRPD.
Obtained solutions were filtered through a 0.45 μm syringe membrane filter. […] Obtained suspensions were cooled to 5° C. at 0.1° C./min and kept at 5° C. for about 12 h. Precipitates were collected by centrifugation filtration through a 0.45 μm nylon membrane filter at 14,000 rpm. Solid parts (wet cakes) were investigated by XRPD.

Series [4] is described as follows: Salt screening by slurry equilibration. In kind it is physicochemical. On the procedure: About 30 mg of Compound 1 Form A and 0.5 or 1 equivalent of base were added into a solvent in a 2 mL glass vial. […] Obtained mixtures were stirred at 25° C. for at least 48 hours.
Obtained suspensions were filtered through a 0.45 μm nylon membrane filter by centrifugation at 14,000 rpm. After being dried at 25° C. under vacuum for 2 h, solid parts were analyzed by XRPD.

Consider `CC(C)(C)c1nc(-c2cccc(NS(=O)(=O)c3c(F)cccc3F)c2F)c(-c2ccnc(N)n2)s1` [dabrafenib], for which the “Status by day 28” value in series [1] (dabrafenib 100 mg/kg PO QD plus trametinib 0.1 mg/kg PO QD) is on record as “reached tumor burden endpoint”; in series [1] (single agent, trametinib 0.1 mg/kg PO QD, dabrafenib 100 mg/kg PO QD), “reached tumor burden endpoint”.
As to `CCN(C)S(=O)(=O)Nc1ccc(F)c(Oc2ccc3ncn([C@H]4COC5(CCN(C(=O)CC6(O)CCN(c7cc8c(cc7F)c(N7CCC(=O)NC7=O)nn8C)CC6)CC5)C4)c(=O)c3c2)c1C#N` [Compound 1, (3R)-3-[6-[2-cyano-3-[[ethyl(methyl)sulfamoyl]amino]-6-fluorophenoxy]-4-oxoquinazolin-3-yl]-8-[2-[1-[3-(2,4-dioxo-1,3-diazinan-1-yl)-5-fluoro-1-methylindazol-6-yl]-4-hydroxypiperidin-4-yl]acetyl]-1-oxa-8-azaspiro[4.5]decane], the Tumor response result in series [1] (10 mg/kg PO BID plus trametinib 0.1 mg/kg PO QD) is recorded as “tumor regression”; in series [1] (10 mg/kg PO BID, without trametinib), “tumor regression”.
`CCN(C)S(=O)(=O)Nc1ccc(F)c(Oc2ccc3ncn([C@H]4COC5(CCN(C(=O)CC6(O)CCN(c7cc8c(cc7F)c(N7CCC(=O)NC7=O)nn8C)CC6)CC5)C4)c(=O)c3c2)c1C#N` [Compound 1 Form A]: the solubility is over 250000 µg/mL in series [2] (1,4-Dioxane, 25° C., listed as Form A); over 500000 µg/mL in series [2] (1,4-Dioxane, 50° C., listed as Form A); 5000 to 7000 µg/mL (≈ 5.22 to 7.31 mM) in series [2] (2-MeTHF, 25 °C, organic solvent or mixture, thermodynamic from solid, 2-MeTHF, 25° C., read-out: Solubility); under 10000 µg/mL in series [2] (2-MeTHF, 50 °C, organic solvent or mixture, thermodynamic from solid, 2-MeTHF, 50° C., read-out: Solubility); 13000 to 17000 µg/mL in series [2] (Acetone, 25° C., listed as Form A); 25000 to 29000 µg/mL in series [2] (Acetone, 50° C., listed as Form A). Further, the solubility in series [2] (Acetonitrile, 25° C., listed as Form A) is 13000 to 17000 µg/mL; in series [2] (Acetonitrile, 50° C., listed as Form A) it was 25000 to 33000 µg/mL; in series [2] (DCM, 25° C., listed as Form A) it was over 250000 µg/mL; in series [2] (DMSO, 25 °C, organic solvent or mixture, thermodynamic from solid, DMSO, 25° C., read-out: Solubility), at least 250000 µg/mL; in series [2] (DMSO, 50 °C, organic solvent or mixture, thermodynamic from solid, DMSO, 50° C., read-out: Solubility), over 500000 µg/mL; in series [2] (MTBE, 25 °C, organic solvent or mixture, thermodynamic from solid, MTBE, 25° C., read-out: Solubility), under 5000 µg/mL. Further, the solubility in series [2] (MTBE, 50 °C, organic solvent or mixture, thermodynamic from solid, MTBE, 50° C., read-out: Solubility) was under 10000 µg/mL; in series [2] (THF, 25° C., listed as Form A) it was over 250000 µg/mL; in series [2] (THF, 50° C., listed as Form A) it was over 500000 µg/mL; in series [2] (ethanol, 25 °C, organic solvent or mixture, thermodynamic from solid, Ethanol, 25° C., read-out: Solubility) it was under 5000 µg/mL; in series [2] (ethanol, 50 °C, organic solvent or mixture, thermodynamic from solid, Ethanol, 50° C., read-out: Solubility), under 10000 µg/mL; in series [2] (ethyl acetate, 25 °C, organic solvent or mixture, thermodynamic from solid, Ethyl acetate, 25° C., read-out: Solubility), under 5000 µg/mL. The solubility was under 10000 µg/mL in series [2] (ethyl acetate, 50 °C, organic solvent or mixture, thermodynamic from solid, Ethyl acetate, 50° C., read-out: Solubility); under 5000 µg/mL in series [2] (heptane, 25 °C, organic solvent or mixture, thermodynamic from solid, Heptane, 25° C., read-out: Solubility); under 10000 µg/mL in series [2] (heptane, 50 °C, organic solvent or mixture, thermodynamic from solid, Heptane, 50° C., read-out: Solubility); under 5000 µg/mL in series [2] (isopropanol, 25 °C, organic solvent or mixture, thermodynamic from solid, Isopropanol, 25° C., read-out: Solubility); under 10000 µg/mL in series [2] (isopropanol, 50 °C, organic solvent or mixture, thermodynamic from solid, Isopropanol, 50° C., read-out: Solubility); under 5000 µg/mL in series [2] (isopropyl acetate, 25 °C, organic solvent or mixture, thermodynamic from solid, Isopropyl acetate, 25° C., read-out: Solubility). Also, the solubility was under 10000 µg/mL in series [2] (isopropyl acetate, 50 °C, organic solvent or mixture, thermodynamic from solid, Isopropyl acetate, 50° C., read-out: Solubility); about 3000 µg/mL (≈ 3.13 mM) in series [2] (methanol, 25 °C, organic solvent or mixture, thermodynamic from solid, Methanol, 25° C., read-out: Solubility); 5000 to 10000 µg/mL (≈ 5.22 to 10.4 mM) in series [2] (methanol, 50 °C, organic solvent or mixture, thermodynamic from solid, Methanol, 50° C., read-out: Solubility); 14000 to 17000 µg/mL (≈ 14.6 to 17.7 mM) in series [2] (methyl ethyl ketone, 25 °C, organic solvent or mixture, thermodynamic from solid, Methyl ethyl ketone, 25° C., read-out: Solubility); 25000 to 33000 µg/mL (≈ 26.1 to 34.4 mM) in series [2] (methyl ethyl ketone, 50 °C, organic solvent or mixture, thermodynamic from solid, Methyl ethyl ketone, 50° C., read-out: Solubility); under 5000 µg/mL in series [2] (toluene, 25 °C, organic solvent or mixture, thermodynamic from solid, Toluene, 25° C., read-out: Solubility). Moreover, the solubility in series [2] (toluene, 50 °C, organic solvent or mixture, thermodynamic from solid, Toluene, 50° C., read-out: Solubility) was under 10000 µg/mL; in series [2] (water, 25 °C, water, thermodynamic from solid, Water, 25° C., read-out: Solubility) it was under 5000 µg/mL; in series [2] (water, 50 °C, water, thermodynamic from solid, Water, 50° C., read-out: Solubility) it was under 10000 µg/mL. Further, in series [3] (slow cooling with Form B seeds, Acetone), the XRPD entry is listed as “Form B”. Also, the Result entry in series [3] (Acetone/water (v:v = 1:1)) is “Sticky material”; in series [3] (Acetone, placed at −20° C. for 11 days) it was “for 11 days: clear solution”; in series [3] (Acetonitrile/water (v:v = 1:1), placed at −20° C. for 11 days), “for 11 days: clear solution”; in series [3] (Acetonitrile, placed at −20° C. for 11 days) it was “for 11 days: clear solution”; in series [3] (DCM), “Sticky material”; in series [3] (Ethanol, placed at −20° C. for 10 days) it was “for 10 days: few solids”. Moreover, the Result result in series [3] (Ethyl acetate, placed at −20° C. for 11 days) is listed as “for 11 days: clear solution”; in series [3] (Methyl ethyl ketone, placed at −20° C. for 11 days), “for 11 days: clear solution”; in series [3] (THF) it was “Oil material”; in series [3] (THF/water (v:v = 1:1), placed at −20° C. for 11 days), “for 11 days: clear solution”. Moreover, the “Slurry equilibration result (XRPD)” value in series [4] (Ca(OH)2 (0.5 equiv.), Acetone, 5% water) is on record as “Sticky material”; in series [4] (Ca(OH)2 (0.5 equiv.), Acetonitrile, 5% water), “Sticky material”; in series [4] (Choline (1 equiv.), Acetone) it was “Sticky material”; in series [4] (Choline (1 equiv.), Acetonitrile) it was “Sticky material”; in series [4] (Choline (1 equiv.), Methanol) it was “Clear solution”; in series [4] (Erbumine (1 equiv.), Methanol), “Few solids”. Besides, the “Slurry equilibration result (XRPD)” value in series [4] (Free form only, Acetone) was “Form B”; in series [4] (Free form only, Acetonitrile), “Form B”; in series [4] (Methylglucamine (1 equiv.), Methanol), “Sticky material”; in series [4] (Mg(OH)2 (0.5 equiv.), Acetone, 5% water), “Few solids”; in series [4] (Mg(OH)2 (0.5 equiv.), Acetonitrile, 5% water), “Form B”; in series [4] (NH3 (1 equiv.), Acetone) it was “Hazy suspension”. Further, the “Slurry equilibration result (XRPD)” value in series [4] (NH3 (1 equiv.), Acetonitrile) is “Form I*”; in series [4] (TRIS (1 equiv.), Methanol) it was “Few solids”.

The record behind these values is US20250289827A1, “MORPHIC FORMS OF A MUTANT BRAF DEGRADER AND METHODS OF MANUFACTURE THEREOF” (C4 THERAPEUTICS, INC., priority 2022, published 2025).
